In patent US20200404919A1, “USE OF HETEROARYL-TRIAZOLE AND HETEROARYL-TETRAZOLE COMPOUNDS AS PESTICIDES IN PLANT PROTECTION” (Bayer Aktiengesellschaft, priority 2018, published 2020) one finds mortality and pest or weed control data, which are given here for 22 molecules.

Holding throughout (type): in vivo
For one assay, the system named is Spodoptera frugiperda. As to the kind of experiment: Spodoptera frugiperda - spray test. The settings on record: in Zea mays, 168 h, read-out: mortality in %. As for the experimental part:
Spodoptera frugiperda—Spray Test
(§1) To produce a suitable preparation of active compound, 1 part by weight of active compound is mixed with the stated amount of solvents and is diluted with water, containing an emulsifier concentration of 1000 ppm, to the desired concentration. Further test concentrations are prepared by dilution with emulsifier containing water.
Maize (Zea mays) leaf sections are sprayed with a preparation of the active ingredient of the desired concentration. Once dry, the leaf sections are infested with fall armyworm larvae (Spodoptera frugiperda).
After 7 days mortality in % is determined. 100% means all caterpillars have been killed and 0% means none of the caterpillars have been killed.

In a further assay the test system is Diabrotica balteata. The assay can be described thus: Diabrotica balteata - spray test. The settings on record: 168 h, 160 μg/well, germinated wheat seeds, larvae, after 7 days, read-out: efficacy in %. As for the experimental part: Diabrotica balteata—Spray Test
(§2) To produce a suitable preparation of active compound, 1 part by weight of active compound is mixed with the stated amount of solvent, and the concentrate is diluted with water, containing an emulsifier concentration of 1000 ppm, to the desired concentration. Further test concentrations are prepared by dilution with emulsifier containing water.
Soaked wheat seeds (Triticum aestivum) are placed in a multiple well plate filled with agar and some water and are incubated for 1 day to germinate (5 seeds per well). The germinated wheat seeds are sprayed with a test solution containing the desired concentration of the active ingredient. Afterwards each unit is infected with 10-20 larvae of the banded cucumber beetle (Diabrotica balteata).
After 7 days efficacy in % is determined. 100% means all the seedlings have grown up like in the untreated, uninfected control; 0% means none of the seedlings have grown.

A further assay concerns Nezara viridula. The assay can be described thus: Nezara viridula - spray test 1. Conditions: in Hordeum vulgare, 96 h, read-out: mortality in %. As for the experimental part: Nezara viridula—Spray Test 1
as §2
Barley plants (Hordeum vulgare) infested with larvae of the southern green stink bug (Nezara viridula) are sprayed with a test solution containing the desired concentration of the active ingredient.
After 4 days mortality in % is determined. 100% means all the stink bugs have been killed; 0% means none of the stink bugs have been killed.

Another assay relates to Phaedon cochleariae. The assay can be described thus: Phaedon cochleariae - spray test. The settings on record: in Brassica rapa, foliar, 168 h, read-out: mortality in %. On the procedure: Phaedon cochleariae—Spray Test
as §1
Chinese cabbage (Brassica pekinensis) leaf disks are sprayed with a preparation of the active ingredient of the desired concentration. Once dry, the leaf disks are infested with mustard beetle larvae (Phaedon cochleariae).
After 7 days mortality in % is determined. 100% means all beetle larvae have been killed and 0% means none of the beetle larvae have been killed.

The subject of a further assay is Myzus persicae. As to the kind of experiment: Myzus persicae - oral test. Conditions: 120 h, read-out: mortality in %. On the procedure: To produce a suitable preparation of active compound, 1 part by weight of active compound is mixed with the stated amount of solvent, and the concentrate is diluted with water to the desired concentration. 50 μl compound solution is filled in microtiter plates and 150 μl IPL41 insect medium (33%+15% sugar) is added to obtain a total volume of 200 μl per well. Afterwards the plates are sealed with parafilm through which a mixed population of the green peach aphid (Myzus persicae) can suck on the compound preparation.
(§3) After 5 days mortality in % is determined. 100% means all aphids have been killed and 0% means none of the aphids have been killed.

For a further assay, the system named is Aphis gossypii. The assay can be described thus: Aphis gossypii - oral test. Conditions: 120 h, read-out: mortality in %. On the procedure:
Solvent: 100 parts by weight acetone
To produce a suitable preparation of active compound, 1 part by weight of active compound is mixed with the stated amount of solvent, and the concentrate is diluted with water to the desired concentration.
50 μl compound solution is filled in microtiter plates and 150 μl IPL41 insect medium (33%+15% sugar) is added to obtain a total volume of 200 μl per well. Afterwards the plates are sealed with parafilm through which a mixed population of the cotton aphid (Aphis gossypii) can suck on the compound preparation.
as §3

For a further assay, the system named is Nilaparvata lugens. The assay can be described thus: Nilaparvata lugens - spray test 1. Conditions: in Oryza sativa, 96 h, read-out: mortality in %, 500 g/ha, rice plants, after 4 days. As for the experimental part: Nilaparvata lugens—Spray Test 1
as §1
Rice plants (Oryza sativa) are sprayed with a preparation of the active ingredient of the desired concentration and the plants are infested with the brown planthopper (Nilaparvata lugens).
After 4 days mortality in % is determined. 100% means all planthoppers have been killed and 0% means none of the planthoppers have been killed.

Turning to `C[C@H](NC(=O)c1cc(Cl)cc(C(F)(F)F)c1)c1ncnn1-c1ccc(I)cn1` [Compound I-132, 3-chloro-N-[(1S)-1-[2-(5-iodo-2-pyridyl)-1,2,4-triazol-3-yl]ethyl]-5-(trifluoromethyl)benzamide], the mortality at 500 g/ha with Spodoptera frugiperda and in the assay with Nezara viridula was 100% in each case. Also, the pest or weed control at 160 µg/disc, 160 µg/well in the assay on Diabrotica balteata came to 100%.

As to `CC(c1ncnn1-c1cccc(Cl)n1)N(CC1CC1)C(=O)c1cc(Cl)cc(C(F)(F)F)c1` (centres unmarked) [Compound I-87], the pest or weed control at 160 µg/disc, 160 µg/well in the assay on Diabrotica balteata was determined as 100%.

Take `CC(c1ncnn1-c1ncccn1)N(CC1CC1)C(=O)c1ccc(Cl)c(Cl)c1` (centres unmarked) [Compound I-104]: the mortality at 500 g/ha in the assay on Phaedon cochleariae and with Nezara viridula was 100% throughout. Besides, the mortality at 20 ppm in the assay on Myzus persicae was 100%. Also, in the assay with Aphis gossypii, the mortality at 100 ppm stood at 90%. Further, in the assay on Diabrotica balteata, the pest or weed control at 160 µg/disc, 160 µg/well came out at 100%.

With `C[C@H](NC(=O)c1cncc(C(F)(F)F)c1)c1nc(C(F)(F)F)nn1-c1ccc(Cl)cn1` [Compound I-135], in the assay on Spodoptera frugiperda, the mortality at 500 g/ha was found to be 100%. The pest or weed control at 160 µg/disc, 160 µg/well in the assay on Diabrotica balteata is 100%.

`CC(c1ncnn1-c1cccnn1)N(CC1CC1)C(=O)c1cc(Cl)cc(C(F)(F)F)c1` (centres unmarked) [Compound I-103]: the mortality at 500 g/ha in the assay on Phaedon cochleariae was 100%. The mortality at 20 ppm in the assay with Myzus persicae was determined as 90%. Also, the mortality at 100 ppm with Aphis gossypii amounted to 100%. Moreover, the pest or weed control at 160 µg/disc, 160 µg/well in the assay on Diabrotica balteata stood at 100%.

Take `CC(c1ncnn1-c1ccnc(Cl)c1)N(CC1CC1)C(=O)c1cc(Cl)cc(C(F)(F)F)c1` (centres unmarked) [Compound I-102]: the pest or weed control at 160 µg/disc, 160 µg/well in the assay on Diabrotica balteata was found to be 100%.

`C[C@H](NC(=O)c1cc(Cl)cc(Br)c1)c1ncnn1-c1ccc(Cl)cn1` [Compound I-137, 3-bromo-5-chloro-N-[(1S)-1-[2-(5-chloro-2-pyridyl)-1,2,4-triazol-3-yl]ethyl]benzamide]: the mortality at 500 g/ha in the assay on Spodoptera frugiperda and in the assay on Nezara viridula was 100% in each case. In the assay with Diabrotica balteata, the pest or weed control at 160 µg/disc, 160 µg/well was 100%.

As for `CC(c1ncnn1-c1ncccn1)N(CC1CCC1)C(=O)c1cc(Cl)cc(C(F)(F)F)c1` (centres unmarked) [Compound I-101], the mortality at 500 g/ha in the assay on Spodoptera frugiperda amounted to 100%. Besides, in the assay with Myzus persicae, the mortality at 20 ppm is 100%. In addition, the mortality at 100 ppm in the assay on Aphis gossypii is 100%. In the assay on Diabrotica balteata, the pest or weed control at 160 µg/disc, 160 µg/well stood at 100%.

As to `CC(c1ncnn1-c1cccnc1)N(CC1CC1)C(=O)c1cc(Cl)cc(C(F)(F)F)c1` (centres unmarked) [Compound I-85], in the assay on Myzus persicae, the mortality at 20 ppm was found to be 100%. Moreover, the mortality at 100 ppm in the assay with Aphis gossypii was found to be 100%. In the assay with Diabrotica balteata, the pest or weed control at 160 µg/disc, 160 µg/well amounted to 100%.

As for `CC(c1ncnn1-c1ccc(Cl)cn1)N(CC1CC1)C(=O)c1cc(Cl)cc(C(F)(F)F)c1` (centres unmarked) [Compound I-84, 3-chloro-N-[1-[2-(5-chloro-2-pyridyl)-1,2,4-triazol-3-yl]ethyl]-N-(cyclopropylmethyl)-5-(trifluoromethyl)benzamide], the mortality at 500 g/ha with Phaedon cochleariae, with Spodoptera frugiperda and with Nezara viridula was 100% in each case. Also, the mortality at 20 ppm in the assay with Myzus persicae came to 100%. For the same molecule, the pest or weed control at 160 µg/disc, 160 µg/well in the assay with Diabrotica balteata amounted to 100%.

As for `CC(c1ncnn1-c1ccncc1)N(CC1CC1)C(=O)c1cc(Cl)cc(C(F)(F)F)c1` (centres unmarked) [Compound I-94], in the assay with Myzus persicae, the mortality at 20 ppm was determined as 100%. Moreover, in the assay on Aphis gossypii, the mortality at 100 ppm came out at 100%. Also, the pest or weed control at 160 µg/disc, 160 µg/well in the assay with Diabrotica balteata is 100%.

For the molecule `C[C@H](NC(=O)c1cc(F)cc(C#N)c1)c1ncnn1-c1ncccn1` [Compound I-128], the pest or weed control at 160 µg/disc, 160 µg/well in the assay on Diabrotica balteata was determined as 100%. Also, the mortality at 500 g/ha with Nezara viridula was determined as 100%.

As to `C[C@H](NC(=O)c1cc(Cl)cc(C(F)(F)F)c1)c1ncnn1-c1ccc(Br)cn1` [Compound I-129, N-[(1S)-1-[2-(5-bromo-2-pyridyl)-1,2,4-triazol-3-yl]ethyl]-3-chloro-5-(trifluoromethyl)benzamide], the mortality at 500 g/ha in the assay on Spodoptera frugiperda and in the assay with Nezara viridula was 100% each time. Also, in the assay with Diabrotica balteata, the pest or weed control at 160 µg/disc, 160 µg/well was found to be 100%.

In the case of `C[C@H](NC(=O)c1cc(C(F)(F)F)cc(C(F)(F)F)c1)c1nc(C(F)(F)F)nn1-c1ccc(Cl)cn1` [Compound I-136, N-[(1S)-1-[2-(5-chloro-2-pyridyl)-5-(trifluoromethyl)-1,2,4-triazol-3-yl]ethyl]-3,5-bis(trifluoromethyl)benzamide], the mortality at 500 g/ha in the assay with Spodoptera frugiperda was determined as 100%. Further, in the assay on Diabrotica balteata, the pest or weed control at 160 µg/disc, 160 µg/well stood at 100%.

Regarding `CC(c1ncnn1-c1ncccn1)N(CC1COC1)C(=O)c1cc(Cl)cc(C(F)(F)F)c1` (centres unmarked) [Compound I-118], the mortality at 500 g/ha in the assay on Phaedon cochleariae is 83%; in the assay with Spodoptera frugiperda, 100%. Besides, the mortality at 20 ppm in the assay with Myzus persicae is 100%. The pest or weed control at 160 µg/disc, 160 µg/well with Diabrotica balteata stood at 100%.

With `C[C@H](NC(=O)c1cc(Cl)cc(C(F)(F)F)c1)c1nc(C(F)(F)F)nn1-c1ccc(Cl)cn1` [Compound I-131, 3-chloro-N-{(1S)-1-[1-(5-chloropyridin-2-yl)-3-(trifluoromethyl)-1H-1,2,4-triazol-5-yl]ethyl}-5-(trifluoromethyl)benzamide], the mortality at 500 g/ha in the assay with Spodoptera frugiperda, with Nezara viridula and in the assay with Nilaparvata lugens was 100% in each case. The pest or weed control at 160 µg/disc, 160 µg/well in the assay with Diabrotica balteata stood at 80%.

With `CC(c1ncnn1-c1ccc(Cl)nc1)N(CC1CC1)C(=O)c1cc(Cl)cc(C(F)(F)F)c1` (centres unmarked) [Compound I-105], in the assay on Phaedon cochleariae, the mortality at 500 g/ha was 100%. Also, the pest or weed control at 160 µg/disc, 160 µg/well in the assay on Diabrotica balteata was 100%.

`CC(c1ncnn1-c1ncc(Br)cn1)N(CC1CC1)C(=O)c1cc(Cl)cc(C(F)(F)F)c1` (centres unmarked) [Compound I-92, N-[1-[2-(5-bromopyrimidin-2-yl)-1,2,4-triazol-3-yl]ethyl]-3-chloro-N-(cyclopropylmethyl)-5-(trifluoromethyl)benzamide]: the mortality at 500 g/ha in the assay on Phaedon cochleariae and with Spodoptera frugiperda was 100% in each case. In addition, in the assay on Myzus persicae, the mortality at 20 ppm is 100%. Further, in the assay with Aphis gossypii, the mortality at 100 ppm was 100%. In addition, in the assay with Diabrotica balteata, the pest or weed control at 160 µg/disc, 160 µg/well was 100%.

On to `CC(c1ncnn1-c1ncccn1)N(CC1CC1)C(=O)c1cncc(SC(F)(F)F)c1` (centres unmarked) [Compound I-90], for which the mortality at 500 g/ha in the assay on Phaedon cochleariae was found to be 100%. Besides, the mortality at 20 ppm in the assay with Myzus persicae is 100%. For the same molecule, the mortality at 100 ppm with Aphis gossypii amounted to 100%.

Regarding `CC(c1ncnn1-c1ncccn1)N(CC1CC1)C(=O)c1cc(C#N)cc(C(F)(F)F)c1` (centres unmarked) [Compound I-50, 3-cyano-N-(cyclopropylmethyl)-N-[1-(2-pyrimidin-2-yl-1,2,4-triazol-3-yl)ethyl]-5-(trifluoromethyl)benzamide], the mortality at 500 g/ha in the assay on Phaedon cochleariae, in the assay with Spodoptera frugiperda and with Nezara viridula was 100% throughout. In addition, in the assay with Myzus persicae, the mortality at 20 ppm turned out to be 100%. Besides, the mortality at 100 ppm in the assay on Aphis gossypii was determined as 100%. The pest or weed control at 160 µg/disc, 160 µg/well in the assay on Diabrotica balteata was found to be 100%.

Turning to `C[C@H](NC(=O)c1cc(F)c(Cl)c(F)c1)c1ncnn1-c1ncccn1` [Compound I-133], in the assay on Diabrotica balteata, the pest or weed control at 160 µg/disc, 160 µg/well amounted to 100%.

For the molecule `CC(NC(=O)c1cc(Cl)cc(Cl)c1)c1ncnn1-c1ncc(Br)cn1` (centres unmarked) [Compound I-130], the mortality at 500 g/ha in the assay on Spodoptera frugiperda was determined as 100%. For the same molecule, in the assay on Diabrotica balteata, the pest or weed control at 160 µg/disc, 160 µg/well came out at 100%.
